Assay results published in patent US20260109715A1, “IMIDAZOPYRIDINE DERIVATIVES WITH BICYCLIC STRUCTURE” (PUBLIC UNIVERSITY CORPORATION YOKOHAMA CITY UNIVERSITY, priority 2022, published 2026).

Tests used:
[1] = system: Snhg1 transcript (NMD target gene) in EMT6 murine breast cancer cell line; assay: Measurement of NMD inhibitory activity in cells (increase in Snhg1 transcript, real-time PCR); parameters: species or system mouse; conditions: Mus musculus, 6 hours treatment, concentration giving 1/2 of maximum Snhg1 fold change of positive control, read-out: Test Example 2 Cell-based Snhg1 EC50
Procedure, shortened: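 EMT6 cells treated with serially diluted compound (2% DMSO final) for 6 h; Snhg1 transcript quantified by real-time PCR (ΔΔCT, Tbp endogenous control, untreated wells set to 1). EC50 taken as concentration giving half the maximum fold change of a known NMD inhibitor positive control.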

[2] = system: Snhg1 transcript in tumor tissues of mice subcutaneously implanted with EMT6 murine breast cancer cell line; assay: Evaluation of NMD inhibitory activity in vivo (Snhg1 transcript in EMT6 tumor tissue after oral administration); conditions: 6 hours after administration, BALB/c mice
Description: The NMD inhibitory activity of a compound of the present invention or a pharmaceutically acceptable salt thereof in vivo can be measured, for example, by the method described below. Using mice subcutaneously implanted with EMT6 murine breast cancer cell line, tumor tissues 6 hours after oral administration of a test substance are excised, and the increase in Snhg1 transcript is quantified as an indicator of NMD inhibition in the tumor, in the same manner as in the in vitro method.
In this test, NMD inhibitory activity in tumor tissues was evaluated when a test substance was orally administered to mice subcutaneously implanted with EMT6 murine breast cancer cell line. As an indicator of NMD inhibitory activity, the increase in the transcript of Snhg1, an NMD target gene, was quantified. First, BALB/c mice were subcutaneously implanted with EMT6 cells (ATCC), and engraftment was confirmed 7 days later. Six hours after administration of the test substance, mice were euthanized, and the collected tumor tissues were cryopreserved. RNA was extracted from the tumor tissues using the illustra RNAspin Mini RNA Isolation kit (GE Healthcare Life Sciences). After synthesizing cDNA using the High-Capacity cDNA Reverse Transcription Kits (Applied Biosystems, 4368813), the cDNA was mixed with PrimeTime Gene Expression Master Mix (Integrated DNA Technologies) and various probes, and gene expression was quantified by QuantStudio 6 Flex (Thermo Fisher Scientific Inc.). For the probe for the Snhg1 gene, which is an NMD target, Mm.PT.58.44039547 (FAM) (Integrated DNA Technologies) was used, and for the probe for the Gapdh gene, which is an endogenous control, Mm99999915_g2 (VIC-PL) (Applied Biosystems) was used. The relative quantification of Snhg1 transcripts in each sample was calculated by the ΔΔCT method using Gapdh as an endogenous control, and the expression level of Snhg1 in each test substance administration group was calculated by setting the expression level of the Vehicle group (0.5% methylcellulose administration group) to 1.

human SMG1 enzyme = human SMG1 enzyme (Homo sapiens, UniProt Q96Q15); assay: Measurement of SMG1 kinase activity (ADP-Glo Kinase Assay); format: biochemical; conditions: purified human SMG1 enzyme 5 nM, Upf1 peptide substrate, ATP 4 μM; qAC50 synonymous with IC50; read-out: Test Example 1 ADP-Glo IC50
Procedure, shortened: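 Purified human SMG1 (5 nM) preincubated with compound (1% DMSO) 15 min at room temperature in HEPES pH 7.5 buffer with MnCl2, then reacted 60 min with Upf1 peptide (8 μg/mL) and 4 μM ATP. ADP formed measured by ADP-Glo luminescence; IC50 by 4-parameter logistic fit, normalised to DMSO (0%) and enzyme-free (−100%) wells.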

human SMG1 enzyme, sequence (Q96Q15 whole entry): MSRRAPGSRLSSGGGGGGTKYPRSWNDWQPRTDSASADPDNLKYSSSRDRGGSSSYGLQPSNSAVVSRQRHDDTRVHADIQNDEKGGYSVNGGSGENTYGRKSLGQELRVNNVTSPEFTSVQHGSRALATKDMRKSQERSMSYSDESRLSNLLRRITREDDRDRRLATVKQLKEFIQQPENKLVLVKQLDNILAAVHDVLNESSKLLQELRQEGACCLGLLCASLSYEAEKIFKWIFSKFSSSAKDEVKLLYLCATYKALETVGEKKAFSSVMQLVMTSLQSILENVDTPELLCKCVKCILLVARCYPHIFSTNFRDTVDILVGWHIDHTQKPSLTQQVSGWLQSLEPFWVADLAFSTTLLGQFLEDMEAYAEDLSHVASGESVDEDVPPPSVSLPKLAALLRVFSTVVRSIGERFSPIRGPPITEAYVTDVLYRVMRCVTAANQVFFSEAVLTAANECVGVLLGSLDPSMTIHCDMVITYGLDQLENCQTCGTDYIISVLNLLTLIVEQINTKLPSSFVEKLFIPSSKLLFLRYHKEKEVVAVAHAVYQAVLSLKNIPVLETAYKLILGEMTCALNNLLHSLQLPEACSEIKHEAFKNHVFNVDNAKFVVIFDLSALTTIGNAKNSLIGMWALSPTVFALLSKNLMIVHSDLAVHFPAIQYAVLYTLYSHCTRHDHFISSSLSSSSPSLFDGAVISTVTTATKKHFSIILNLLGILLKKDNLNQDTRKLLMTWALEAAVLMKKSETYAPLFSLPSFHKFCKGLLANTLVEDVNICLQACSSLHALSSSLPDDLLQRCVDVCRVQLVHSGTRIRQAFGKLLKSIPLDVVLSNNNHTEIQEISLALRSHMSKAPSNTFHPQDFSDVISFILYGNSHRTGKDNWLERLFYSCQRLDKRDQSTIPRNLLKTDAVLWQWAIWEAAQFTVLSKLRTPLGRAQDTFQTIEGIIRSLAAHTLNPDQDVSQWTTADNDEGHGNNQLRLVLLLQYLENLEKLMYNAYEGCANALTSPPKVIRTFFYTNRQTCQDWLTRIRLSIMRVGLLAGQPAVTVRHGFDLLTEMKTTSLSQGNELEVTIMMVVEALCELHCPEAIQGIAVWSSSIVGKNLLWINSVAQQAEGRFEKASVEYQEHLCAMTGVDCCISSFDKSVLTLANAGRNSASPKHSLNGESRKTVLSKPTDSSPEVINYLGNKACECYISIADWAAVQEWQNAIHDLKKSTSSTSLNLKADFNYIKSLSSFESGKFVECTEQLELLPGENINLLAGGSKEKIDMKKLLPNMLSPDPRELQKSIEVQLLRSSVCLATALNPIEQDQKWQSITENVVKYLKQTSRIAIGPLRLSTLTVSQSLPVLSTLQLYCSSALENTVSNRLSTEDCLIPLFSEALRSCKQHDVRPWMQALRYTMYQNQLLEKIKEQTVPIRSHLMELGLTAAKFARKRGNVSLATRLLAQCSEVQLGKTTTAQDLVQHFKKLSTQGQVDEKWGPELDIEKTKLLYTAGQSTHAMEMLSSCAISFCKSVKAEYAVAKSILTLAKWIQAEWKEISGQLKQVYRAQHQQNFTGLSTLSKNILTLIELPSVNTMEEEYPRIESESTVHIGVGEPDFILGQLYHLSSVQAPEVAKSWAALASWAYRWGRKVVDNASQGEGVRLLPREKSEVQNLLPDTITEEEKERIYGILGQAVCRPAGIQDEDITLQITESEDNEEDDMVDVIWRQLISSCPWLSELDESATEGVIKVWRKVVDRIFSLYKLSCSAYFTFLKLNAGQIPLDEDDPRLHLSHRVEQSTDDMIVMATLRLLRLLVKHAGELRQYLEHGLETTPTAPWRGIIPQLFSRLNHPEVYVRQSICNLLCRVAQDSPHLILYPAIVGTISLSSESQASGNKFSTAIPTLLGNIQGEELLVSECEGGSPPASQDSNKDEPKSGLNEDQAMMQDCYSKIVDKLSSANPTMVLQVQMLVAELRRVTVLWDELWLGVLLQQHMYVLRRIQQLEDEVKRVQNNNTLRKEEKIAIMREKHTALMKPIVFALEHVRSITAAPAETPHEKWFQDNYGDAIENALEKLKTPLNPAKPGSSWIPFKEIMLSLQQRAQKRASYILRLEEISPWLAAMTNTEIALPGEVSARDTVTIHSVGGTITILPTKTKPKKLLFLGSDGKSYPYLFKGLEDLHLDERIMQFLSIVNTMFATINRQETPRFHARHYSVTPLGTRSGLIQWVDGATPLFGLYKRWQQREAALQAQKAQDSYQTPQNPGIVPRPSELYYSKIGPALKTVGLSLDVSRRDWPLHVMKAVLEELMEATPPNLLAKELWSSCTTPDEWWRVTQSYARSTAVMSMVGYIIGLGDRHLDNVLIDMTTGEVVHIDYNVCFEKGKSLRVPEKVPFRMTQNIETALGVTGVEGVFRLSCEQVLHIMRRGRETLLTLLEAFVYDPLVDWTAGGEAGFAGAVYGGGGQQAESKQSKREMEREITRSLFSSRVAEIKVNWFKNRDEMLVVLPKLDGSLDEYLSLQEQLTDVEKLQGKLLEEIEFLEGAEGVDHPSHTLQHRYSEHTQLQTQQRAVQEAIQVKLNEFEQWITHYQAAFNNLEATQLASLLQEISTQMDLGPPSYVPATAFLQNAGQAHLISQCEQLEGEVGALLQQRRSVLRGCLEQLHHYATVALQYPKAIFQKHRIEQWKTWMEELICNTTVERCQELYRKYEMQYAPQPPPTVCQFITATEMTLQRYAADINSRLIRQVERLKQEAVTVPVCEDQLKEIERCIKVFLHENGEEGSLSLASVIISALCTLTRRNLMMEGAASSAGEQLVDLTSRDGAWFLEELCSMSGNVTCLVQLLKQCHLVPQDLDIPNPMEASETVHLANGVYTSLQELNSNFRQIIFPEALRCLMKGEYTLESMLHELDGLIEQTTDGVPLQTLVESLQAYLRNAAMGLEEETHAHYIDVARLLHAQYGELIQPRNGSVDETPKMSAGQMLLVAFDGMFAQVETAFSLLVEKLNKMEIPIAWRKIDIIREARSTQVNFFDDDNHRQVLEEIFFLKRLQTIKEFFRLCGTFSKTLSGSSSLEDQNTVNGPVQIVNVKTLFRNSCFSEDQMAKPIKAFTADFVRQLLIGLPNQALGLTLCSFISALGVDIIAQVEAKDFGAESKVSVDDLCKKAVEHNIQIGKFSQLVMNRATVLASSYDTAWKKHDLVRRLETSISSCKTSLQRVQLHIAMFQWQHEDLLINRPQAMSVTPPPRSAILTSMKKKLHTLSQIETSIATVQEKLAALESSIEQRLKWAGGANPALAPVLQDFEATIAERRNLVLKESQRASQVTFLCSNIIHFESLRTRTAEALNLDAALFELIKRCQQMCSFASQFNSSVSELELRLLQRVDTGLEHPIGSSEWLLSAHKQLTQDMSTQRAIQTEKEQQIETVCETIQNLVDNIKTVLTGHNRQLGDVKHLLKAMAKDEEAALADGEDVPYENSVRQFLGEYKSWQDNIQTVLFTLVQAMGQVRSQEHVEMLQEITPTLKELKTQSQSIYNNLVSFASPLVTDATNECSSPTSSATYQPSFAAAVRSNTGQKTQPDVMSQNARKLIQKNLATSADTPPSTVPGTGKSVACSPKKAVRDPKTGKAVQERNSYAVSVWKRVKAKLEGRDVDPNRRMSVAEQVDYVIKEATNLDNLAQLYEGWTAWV

`COc1cc(C(C)C)ncc1-c1nccc2[nH]c(=O)c(-c3nc4cnc(Cl)cc4[nH]3)cc12` [Example 61, 3-(6-chloro-1H-imidazo[4,5-c]pyridin-2-yl)-5-[4-methoxy-6-(propan-2-yl)pyridin-3-yl]-1,6-naphthyridin-2(1H)-one] gave an EC50 [1] of 26 nM, a Snhg1 fold change ([2]; 100 mg/kg oral) of 4.3 and an IC50 (human SMG1 enzyme) of 1.4 nM.
In the case of `CCc1nc(Cl)cc2[nH]c(-c3cc4c(-c5ccc(C)nc5OC)nccc4[nH]c3=O)nc12` [Example 68, 3-(6-chloro-4-ethyl-1H-imidazo[4,5-c]pyridin-2-yl)-5-(2-methoxy-6-methylpyridin-3-yl)-1,6-naphthyridin-2(1H)-one], the EC50 [1] is reported as 10 nM, the Snhg1 fold change ([2]; 30 mg/kg oral) is reported as 8.3 and the IC50 (human SMG1 enzyme) is reported as 0.62 nM.
With `CCc1nc(Cl)cc2[nH]c(-c3cc4c(-c5cnc(OC)nc5OC)nccc4[nH]c3=O)nc12` [Example 70, 3-(6-chloro-4-ethyl-1H-imidazo[4,5-c]pyridin-2-yl)-5-(2,4-dimethoxypyrimidin-5-yl)-1,6-naphthyridin-2(1H)-one] the EC50 [1] was 15 nM, the Snhg1 fold change ([2]; 10 mg/kg oral) was 3.6 and the IC50 (human SMG1 enzyme) was 0.56 nM.
Work on `COc1ncc(-c2nccc3[nH]c(=O)c(-c4nc5c(NCC(F)F)nc(Cl)cc5[nH]4)cc23)c(OC)n1` [Example 72, 3-(6-chloro-4-[(2,2-difluoroethyl)amino]-1H-imidazo[4,5-c]pyridin-2-yl)-5-(2,4-dimethoxypyrimidin-5-yl)-1,6-naphthyridin-2(1H)-one] yielded an EC50 [1] of 4.5 nM, a Snhg1 fold change ([2]; 30 mg/kg oral) of 4.3 and an IC50 (human SMG1 enzyme) of 0.81 nM.
`Cc1nn(C(F)F)c(C)c1-c1nccc2[nH]c(=O)c(-c3nc4c(C)nc(Cl)cc4[nH]3)cc12` [Example 84, 3-(6-chloro-4-methyl-1H-imidazo[4,5-c]pyridin-2-yl)-5-[1-(difluoromethyl)-3,5-dimethyl-1H-pyrazol-4-yl]-1,6-naphthyridin-2(1H)-one] gave an EC50 [1] of 42 nM, a Snhg1 fold change ([2]; 10 mg/kg oral) of 4.6 and an IC50 (human SMG1 enzyme) of 1 nM.
With `Cc1nn(C(F)F)c(C)c1-c1nccc2[nH]c(=O)c(-c3nc4c(N5C[C@@H](O)C[C@H]5C)nc(Cl)cc4[nH]3)cc12` [Example 85, 3-{6-chloro-4-[(2R,4S)-4-hydroxy-2-methylpyrrolidin-1-yl]-1H-imidazo[4,5-c]pyridin-2-yl}-5-[1-(difluoromethyl)-3,5-dimethyl-1H-pyrazol-4-yl]-1,6-naphthyridin-2(1H)-one] the EC50 [1] was 0.47 nM, the Snhg1 fold change ([2]; 10 mg/kg oral) was 6.9 and the IC50 (human SMG1 enzyme) was 0.39 nM.
`Cc1nc(Cl)cc2[nH]c(-c3cc4c(-c5c(C6CC6)nn(C(F)F)c5C)nccc4[nH]c3=O)nc12` [Example 91, 3-(6-chloro-4-methyl-1H-imidazo[4,5-c]pyridin-2-yl)-5-[3-cyclopropyl-1-(difluoromethyl)-5-methyl-1H-pyrazol-4-yl]-1,6-naphthyridin-2(1H)-one] gave an EC50 [1] of 34 nM, a Snhg1 fold change ([2]; 10 mg/kg oral) of 5.9 and an IC50 (human SMG1 enzyme) of 1.8 nM.
In the case of `CCc1nc(Cl)cc2[nH]c(-c3cc4c(-c5c(C6CC6)nn(C(F)F)c5C)nccc4[nH]c3=O)nc12` [Example 92, 3-(6-chloro-4-ethyl-1H-imidazo[4,5-c]pyridin-2-yl)-5-[3-cyclopropyl-1-(difluoromethyl)-5-methyl-1H-pyrazol-4-yl]-1,6-naphthyridin-2(1H)-one], the EC50 [1] is reported as 20 nM, the Snhg1 fold change ([2]; 10 mg/kg oral) is reported as 6.5 and the IC50 (human SMG1 enzyme) is reported as 1.9 nM.
Work on `C[C@@H]1COCCN1c1nc(Cl)cc2[nH]c(-c3cc4cnccc4[nH]c3=O)nc12.Cc1ccc(S(=O)(=O)O)cc1` [Example 117, 3-{6-chloro-4-[(3R)-3-methylmorpholin-4-yl]-1H-imidazo[4,5-c]pyridin-2-yl}-1,6-naphthyridin-2(1H)-one p-toluenesulfonate] yielded an EC50 [1] of 80 nM, a Snhg1 fold change ([2]; 10 mg/kg oral) of 5.1 and an IC50 (human SMG1 enzyme) of 5.1 nM.
Work on `CS(=O)(=O)O.C[C@@H]1C[C@@H](F)CN1c1nc(Cl)cc2[nH]c(-c3cc4cnccc4[nH]c3=O)nc12` [Example 118, 3-{6-chloro-4-[(2R,4R)-4-fluoro-2-methylpyrrolidin-1-yl]-1H-imidazo[4,5-c]pyridin-2-yl}-1,6-naphthyridin-2(1H)-one methanesulfonate] yielded an EC50 [1] of 34 nM, a Snhg1 fold change ([2]; 10 mg/kg oral) of 9.1 and an IC50 (human SMG1 enzyme) of 1.8 nM.
`CS(=O)(=O)O.Cc1nccc2[nH]c(=O)c(-c3nc4c(N5CC[C@H]5C)nc(Cl)cc4[nH]3)cc12` [Example 123, 3-{6-chloro-4-[(2R)-2-methylazetidin-1-yl]-1H-imidazo[4,5-c]pyridin-2-yl}-5-methyl-1,6-naphthyridin-2(1H)-one methanesulfonate] gave an EC50 [1] of 46 nM, a Snhg1 fold change ([2]; 30 mg/kg oral) of 4.4 and an IC50 (human SMG1 enzyme) of 1.6 nM.
Work on `CS(=O)(=O)O.Cc1nccc2[nH]c(=O)c(-c3nc4c(N5CCOC[C@H]5C)nc(Cl)cc4[nH]3)cc12` [Example 124, 3-{6-chloro-4-[(3R)-3-methylmorpholin-4-yl]-1H-imidazo[4,5-c]pyridin-2-yl}-5-methyl-1,6-naphthyridin-2(1H)-one methanesulfonate] yielded an EC50 [1] of 55 nM, a Snhg1 fold change ([2]; 10 mg/kg oral) of 4.6 and an IC50 (human SMG1 enzyme) of 3.2 nM.
In the case of `CS(=O)(=O)O.Cc1nccc2[nH]c(=O)c(-c3nc4c(C5CCOCC5)nc(Cl)cc4[nH]3)cc12` [Example 125, 3-[6-chloro-4-(tetrahydro-2H-pyran-4-yl)-1H-imidazo[4,5-c]pyridin-2-yl]-5-methyl-1,6-naphthyridin-2(1H)-one methanesulfonate], the EC50 [1] is reported as 23 nM, the Snhg1 fold change ([2]; 10 mg/kg oral) is reported as 6.5 and the IC50 (human SMG1 enzyme) is reported as 0.72 nM.
Molecule `CS(=O)(=O)O.O=c1[nH]c2ccncc2cc1-c1nc2c(C3CCOCC3)nc(Cl)cc2[nH]1` [Example 126, 3-[6-chloro-4-(tetrahydro-2H-pyran-4-yl)-1H-imidazo[4,5-c]pyridin-2-yl]-1,6-naphthyridin-2(1H)-one methanesulfonate] has an EC50 [1] of 29 nM, a Snhg1 fold change ([2]; 30 mg/kg oral) of 4.1 and an IC50 (human SMG1 enzyme) of 1.6 nM.
`CCc1nccc2[nH]c(=O)c(-c3nc4c(C5CCOCC5)nc(Cl)cc4[nH]3)cc12.CS(=O)(=O)O` [Example 127, 3-[6-chloro-4-(tetrahydro-2H-pyran-4-yl)-1H-imidazo[4,5-c]pyridin-2-yl]-5-ethyl-1,6-naphthyridin-2(1H)-one methanesulfonate] gave an EC50 [1] of 34 nM, a Snhg1 fold change ([2]; 10 mg/kg oral) of 6.2 and an IC50 (human SMG1 enzyme) of 0.96 nM.
For `CC1(c2nccc3[nH]c(=O)c(-c4nc5c(C6CCOCC6)nc(Cl)cc5[nH]4)cc23)CC1` [Example 128, 3-[6-chloro-4-(tetrahydro-2H-pyran-4-yl)-1H-imidazo[4,5,c]pyridin-2-yl]-5-(1-methylcyclopropyl)-1,6-naphthyridin-2(1H)-one methanesulfonate], the EC50 [1] was 56 nM, the Snhg1 fold change ([2]; 30 mg/kg oral) was 6.2 and the IC50 (human SMG1 enzyme) was 4.5 nM.
For `CS(=O)(=O)O.Cc1ccccc1-c1nccc2[nH]c(=O)c(-c3nc4c(NCC(F)(F)F)nc(Cl)cc4[nH]3)cc12` [Example 129, 3-{6-chloro-4-[(2,2,2-trifluoroethyl)amino]-1H-imidazo[4,5-c]pyridin-2-yl}-5-(2-methylphenyl)-1,6-naphthyridin-2(1H)-one methanesulfonate], the EC50 [1] was 17 nM, the Snhg1 fold change ([2]; 10 mg/kg oral) was 9.0 and the IC50 (human SMG1 enzyme) was 3.5 nM.
`COc1ccc(F)cc1-c1nccc2[nH]c(=O)c(-c3nc4c(C)nc(Cl)cc4[nH]3)cc12.CS(=O)(=O)O` [Example 131, 3-(6-chloro-4-methyl-1H-imidazo[4,5-c]pyridin-2-yl)-5-(5-fluoro-2-methoxyphenyl)-1,6-naphthyridin-2(1H)-one methanesulfonate] was tested, and the EC50 [1] was 22 nM, the Snhg1 fold change ([2]; 10 mg/kg oral) was 7.1 and the IC50 (human SMG1 enzyme) was 0.78 nM.
Molecule `CS(=O)(=O)O.Cc1nc(Cl)cc2[nH]c(-c3cc4c(-c5ccccc5OC(F)F)nccc4[nH]c3=O)nc12` [Example 132, 3-(6-chloro-4-methyl-1H-imidazo[4,5-c]pyridin-2-yl)-5-[2-(difluoromethoxy)phenyl]-1,6-naphthyridin-2(1H)-one methanesulfonate] has an EC50 [1] of 50 nM, a Snhg1 fold change ([2]; 10 mg/kg oral) of 7.4 and an IC50 (human SMG1 enzyme) of 3.5 nM.
